Experiment [1] has as its target T1, Casein kinase I isoform alpha (Homo sapiens, UniProt P48729). The experiment can be described thus: CSNK1A1 Assay 1. The method, then: Inhibitory activity of compounds of the present invention in presence of 1 μM adenosine-tri-phosphate (ATP) was quantified employing the CSNK1A1 assay as described in the following paragraphs. In essence, the enzyme activity is measured by quantification of the adenosine-di-phosphate (ADP), which is generated as a co-product of the enzyme reaction, via the “ADP-Glo™ Kinase Assay” kit from the company Promega. This detection system works as follows: In a first step the ATP not consumed in the kinase reaction is quantitatively converted to cAMP employing an adenylate cyclase (“ADP-Glo-reagent”), then the adenylate cyclase is stopped and the ADP generated in the kinase reaction converted to ATP which generates in a luciferase-based reaction a glow-luminescence signal (“Kinase Detection Reagent”). Recombinant fusion protein of N-terminal Glutathion-S-Transferase (GST) and full-length human CSNK1A1, expressed by baculovirus infected insect cells and purified via Glutathion affinity chromatography, was purchased from Life Technologies (product no. PV4174) and used as enzyme. As substrate for the kinase reaction the biotinylated peptide Btn-Ahx-[…] (C-terminus in amide form) was used which can be purchased e.g. from the company Biosyntan (Berlin-Buch, Germany).

Experiment [2] deals with T2, Epidermal growth factor receptor [669-1210] (UniProt P00533).
T2 construct: 669-1210
T2 sequence (P00533 669-1210): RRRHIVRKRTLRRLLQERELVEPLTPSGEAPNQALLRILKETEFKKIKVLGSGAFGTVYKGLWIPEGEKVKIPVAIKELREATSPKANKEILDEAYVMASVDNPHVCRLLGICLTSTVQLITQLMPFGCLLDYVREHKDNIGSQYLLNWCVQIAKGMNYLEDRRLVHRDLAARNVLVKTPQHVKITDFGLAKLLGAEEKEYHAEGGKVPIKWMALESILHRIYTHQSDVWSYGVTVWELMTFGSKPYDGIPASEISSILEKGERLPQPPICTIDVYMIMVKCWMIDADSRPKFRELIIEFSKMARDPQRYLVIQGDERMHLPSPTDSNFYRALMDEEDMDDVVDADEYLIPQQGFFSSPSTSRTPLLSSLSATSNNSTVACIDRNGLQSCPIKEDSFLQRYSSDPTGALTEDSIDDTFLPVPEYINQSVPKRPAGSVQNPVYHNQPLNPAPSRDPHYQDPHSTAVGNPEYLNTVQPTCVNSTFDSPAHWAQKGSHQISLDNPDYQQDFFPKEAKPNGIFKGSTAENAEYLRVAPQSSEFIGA
The experiment is described as follows: WT-EGFR Kinase Assay. The method, then:
For the assay 50 nl of a 100 fold concentrated solution of the test compound in DMSO was pipetted into either a black low volume 384 well microtiter plate or a black 1536 well microtiter plate (both Greiner Bio-One, Frickenhausen, Germany), 2 μL of a solution of EGFR in aqueous assay buffer [50 mM Hepes pH 7.0, 10 mM MgCl2, 1 mM dithiothreitol, 0.5 mM EGTA, 0.3 mM activated sodium ortho-vanadate, 0.005% (w/v) bovine serum albumin, 0.005% (v/v) Tween-20] were added and the mixture was incubated for 15 min at 22° C. to allow pre-binding of the test compounds to the enzyme before the start of the kinase reaction. […] The concentration of EGFR was adjusted depending of the activity of the enzyme lot and was chosen appropriate to have the assay in the linear range, typical concentration was 7.6 pg/μL. […] Subsequently the amount of phosphorylated substrate was evaluated by measurement of the resonance energy transfer from the PT66-Tb-Cryptate to the streptavidine-XL665.

The target in experiment [3] is T1, Casein kinase I isoform alpha. The experiment is described as follows: CSNK1A1 High ATP Assay. As for the experimental part: For the assay 50 nl of a 100 fold concentrated solution of the test compound in DMSO was pipetted into a white low volume 384-well microtiter plate (Greiner Bio-One, Frickenhausen, Germany), 2 μL of a solution of CSNK1A1 in aqueous assay buffer [50 mM HEPES pH 7.5, 10% (v/v) glycerol, 10 mM MgCl2, 50 mM NaCl, 1 mM dithiothreitol, 0.01% (w/v) bovine serum albumin, 0.01% (v/v) Triton X-100] were added and the mixture was incubated for 15 min at 22° C. to allow pre-binding of the test compounds to the enzyme before the start of the kinase reaction. […] The concentration of CSNK1A1 was adjusted depending of the activity of the enzyme lot and was chosen appropriate to have the assay in the linear range, a typical concentration is about 0.4 ng/μL. The reaction was stopped by the addition of 2.5 μL of “ADP-Glo-reagent” (1:1.5 fold diluted with water) and the resulting mixture was incubated at 22° C. for 1 h to convert the ATP not consumed in the kinase reaction completely […]. Subsequently 2.5 μL of the “kinase detection reagent” (1.2 fold more concentrated than recommended by the producer) were added, the resulting mixture was incubated at 22° C. for 1 h and then the luminescence measured with a suitable measurement instrument (e.g. Viewlux™ from Perkin-Elmer). The amount of emitted light was taken as a measure for the amount of ADP generated and thereby for the activity of the CSNK1A1.

Experiment [4] shares this target. The experiment can be described thus: CSNK1A1 Assay 2. The method, then:
For the assay 50 nl of a 100 fold concentrated solution of the test compound in DMSO was pipetted into a white 1536-well microtiter plate (Greiner Bio-One, Frickenhausen, Germany), 2 μL of a solution of CSNK1A1 in aqueous assay buffer [50 mM HEPES pH 7.5, 10% (v/v) glycerol, 10 mM MgCl2, 50 mM NaCl, 1 mM dithiothreitol, 0.01% (w/v) bovine serum albumin, 0.01% (v/v) Triton X-100] were added and the mixture was incubated for 15 min at 22° C. to allow pre-binding of the test compounds to the enzyme before the start of the kinase reaction. […] The concentration of CSNK1A1 was adjusted depending of the activity of the enzyme lot and was chosen appropriate to have the assay in the linear range, a typical concentrations are about 0.0375 ng/μL. The reaction was stopped by the addition of 2.5 μL of “ADP-Glo-reagent” (1:1.5 fold diluted with water) and the resulting mixture was incubated at 22° C. for 1 h to convert the ATP not consumed in the kinase reaction completely […]. Subsequently 2.5 μL of the “kinase detection reagent” (1.2 fold more concentrated than recommended by the producer) were added, the resulting mixture was incubated at 22° C. for 1 h and then the luminescence measured with a suitable measurement instrument (e.g. Viewlux™ from Perkin-Elmer).

The target of experiment [5] is Casein kinase I isoform delta (Homo sapiens, UniProt P48730). The experiment can be described thus: CSNK1D Assay. As for the experimental part: For the assay 50 nl of a 100 fold concentrated solution of the test compound in DMSO was pipetted into a white 1536-well microtiter plate (Greiner Bio-One, Frickenhausen, Germany), 2 μL of a solution of CSNK1D in aqueous assay buffer [50 mM HEPES pH 7.5, 10% (v/v) glycerol, 10 mM MgCl2, 50 mM NaCl, 1 mM dithiothreitol, 0.01% (w/v) bovine serum albumin, 0.01% (v/v) Triton X-100] were added and the mixture was incubated for 15 min at 22° C. to allow pre-binding of the test compounds to the enzyme before the start of the kinase reaction. […] The concentration of CSNK1 D was adjusted depending of the activity of the enzyme lot and was chosen appropriate to have the assay in the linear range, a typical concentration is about 0.5 ng/μL. The reaction was stopped by the addition of 2.5 μL of “ADP-Glo-reagent” (1:1.5 fold diluted with water) and the resulting mixture was incubated at 22° C. for 1 h to convert the ATP not consumed in the kinase reaction completely […]. Subsequently 2.5 μL of the “kinase detection reagent” (1.2 fold more concentrated than recommended by the producer) were added, the resulting mixture was incubated at 22° C. for 1 h and then the luminescence measured with a suitable measurement instrument (e.g. Viewlux™ from Perkin-Elmer). The amount of emitted light was taken as a measure for the amount of ADP generated and thereby for the activity of the CSNK1D.
Casein kinase I isoform delta, sequence (P48730 whole entry, canonical isoform): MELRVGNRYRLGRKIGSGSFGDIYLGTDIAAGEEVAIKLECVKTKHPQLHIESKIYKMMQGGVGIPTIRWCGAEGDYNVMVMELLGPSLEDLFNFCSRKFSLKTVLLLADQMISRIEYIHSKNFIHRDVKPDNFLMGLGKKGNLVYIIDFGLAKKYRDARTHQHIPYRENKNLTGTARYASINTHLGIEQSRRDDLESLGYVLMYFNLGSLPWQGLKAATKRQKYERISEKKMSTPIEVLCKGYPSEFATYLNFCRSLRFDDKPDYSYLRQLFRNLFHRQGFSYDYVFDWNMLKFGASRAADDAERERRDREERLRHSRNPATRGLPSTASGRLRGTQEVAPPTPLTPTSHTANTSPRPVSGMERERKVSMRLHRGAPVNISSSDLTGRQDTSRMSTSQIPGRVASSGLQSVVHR

What is called IC50 is the point on the concentration scale where inhibition reaches its midpoint. High values mean weaker potency, low ones greater potency.

T1 sequence (P48729 whole entry, canonical isoform): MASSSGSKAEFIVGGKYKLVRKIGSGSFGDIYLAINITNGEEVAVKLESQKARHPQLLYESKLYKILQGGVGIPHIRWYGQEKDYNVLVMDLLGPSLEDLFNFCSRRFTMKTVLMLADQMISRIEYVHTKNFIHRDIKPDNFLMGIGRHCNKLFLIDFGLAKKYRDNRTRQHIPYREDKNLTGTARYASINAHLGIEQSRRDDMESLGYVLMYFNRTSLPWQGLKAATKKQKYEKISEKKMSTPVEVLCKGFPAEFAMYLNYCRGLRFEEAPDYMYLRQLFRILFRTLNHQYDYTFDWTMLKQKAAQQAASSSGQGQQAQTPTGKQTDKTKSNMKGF

As for `CN1CCc2[nH]c(-c3ccnc(NC(=O)[C@@H]4C[C@@H]4F)c3)c(Nc3ccccc3)c2C1=O` [US10428063, Example 40], the IC50 in experiment [1] is 24.1 nM; in experiment [2], 85.5 nM.
For `Cc1c(F)cccc1Nc1c(-c2ccnc(NC(=O)Cc3ccc(F)cc3)c2)[nH]c2c1C(=O)NC(C)(C)C2` [US12227501, Example 131], the concentration for half-maximal inhibition (IC50) in experiment [3] is 464 nM; in experiment [4], 9.38 nM; in experiment [2], 1090 nM; in experiment [5], 11.6 nM.
Take `O=C(Cc1ccc(F)cc1)Nc1cc(-c2[nH]c3c(c2Nc2ccccc2)C(=O)N(CC(F)(F)F)CC3)ccn1` [US12227501, Example 36]: the IC50 in experiment [3] is 1080 nM; in experiment [4], 11.3 nM; in experiment [2], above 20000 nM.
Taken in the same sequence, the figures for `CC1(C)Cc2[nH]c(-c3ccnc(NC(=O)Cc4ccc(F)cc4)c3)c(Nc3cccc(F)n3)c2C(=O)N1` [US12227501, Example 127] were 23.1 nM, 4.74 nM and above 20000 nM.
For the compound `Cc1ccccc1Nc1c(-c2ccnc(NC(=O)Cc3ccc(F)cc3)c2)[nH]c2c1C(=O)NC1(CCC1)C2` [US12227501, Example 142], the IC50 in experiment [3] is 12.3 nM; in experiment [4], 5.1 nM; in experiment [2], above 20000 nM; in experiment [5] it was 9.35 nM.
Taken in the same sequence, the figures for `Cc1ccccc1CC(=O)Nc1cc(-c2[nH]c3c(c2Nc2ccccc2)C(=O)N(C)CC3)ccn1` [US12227501, Example 71] were 241 nM, 4.79 nM, 7430 nM and 6.47 nM.
For `CC1(C)Cc2[nH]c(-c3ccnc(NC(=O)Cc4ccc(F)cc4)c3)c(Nc3ccccc3)c2C(=O)N1` [US12227501, Example 22], in that order: 54.7 nM, 4.23 nM, 815 nM and 11.9 nM.
For the compound `Cc1cccc(CC(=O)Nc2cc(-c3[nH]c4c(c3Nc3ccccc3)C(=O)N(C)CC4)ccn2)c1` [US12227501, Example 70], the IC50 in experiment [3] is 140 nM; in experiment [4], 3.2 nM; in experiment [2], 2040 nM; in experiment [5] it was 3.66 nM.
In the case of `CC(C(=O)Nc1cc(-c2[nH]c3c(c2Nc2ccccc2)C(=O)N(CC(F)(F)F)CC3)ccn1)c1ccc(F)cc1` (stereo not drawn) [US12227501, Example 37], the IC50 in experiment [3] is above 1630 nM; in experiment [4], 22.6 nM; in experiment [2], above 20000 nM.
Take `CC1(C)Cc2[nH]c(-c3ccnc(NC(=O)Cc4ccc(F)cc4)c3)c(Nc3cccc(F)n3)c2C(=O)N1` [US12227501, Example 126]: the IC50 in experiment [3] turned out to be 47.8 nM; in experiment [4], 4.44 nM; in experiment [5] it was 14.4 nM.
Taken in the same sequence, the figures for `Cc1ccccc1Nc1c(-c2ccnc(NC(=O)Cc3ccc(F)cc3)c2)[nH]c2c1C(=O)NC(C)(C)C2` [US12227501, Example 113] were 166 nM, 13.7 nM and 16.1 nM.
Turning to `CN1C(=O)c2c([nH]c(-c3ccnc(NC(=O)Cc4ccc(F)cc4)c3)c2Nc2ccccc2)CC12CCC2` [US12227501, Example 156], the IC50 in experiment [3] stood at 29.7 nM; in experiment [4], 6.09 nM; in experiment [2], 6660 nM; in experiment [5], 9.38 nM.
With `CC(C(=O)Nc1cc(-c2[nH]c3c(c2Nc2ccccc2F)C(=O)N(C)CC3)ccn1)c1ccc(F)cc1` (stereo not drawn) [US12227501, Example 29], the IC50 in experiment [3] was determined as 138 nM; in experiment [4], 3.19 nM.

These data come from BindingDB's records for patent US12227501 (Bayer Aktiengesellschaft, 2025).
